Measured values as given in patent US7943643B2, “Aryl substituted pyridines and the use thereof” (Purdue Pharma L.P., priority 2001, dated 2011).

Target: rBIIa/beta 1 sodium channels (Rattus norvegicus, UniProt P04775)
Experiment: Electrophysiological assay, two-electrode voltage clamp in Xenopus oocytes
Assay type: cell-based
Conditions: apparent inhibition constant from single point inhibition data; inactivated-state voltage protocol; channels expressed in Xenopus oocytes; read-out: RBIIA/β1 Ki
Protocol: Electrophysiological Assay:
Electrophysiological Assay was used to measure potencies of compounds of the present invention rBIIa/beta 1 sodium channels expressed in Xenopus oocytes.
Preparation of cRNA encoding cloned rat brain type IIa (rBIIa) and beta 1 (β1): cDNA clones encoding the rat brain beta 1 subunit were cloned in house using standard methods, and mRNA were prepared by standard methods. mRNA encoding rBIIa was provided by Dr. A. Golden (UC Irvine). The mRNAs were diluted and stored at −80° C. in 1 μL aliquots until injection.
Preparation of oocytes: Mature female Xenopus laevis were anaesthetized (20-40 min) using 0.15% 3-aminobenzoic acid ethyl ester (MS-222) following established procedures (Woodward, R. M., et al., Mol. Pharmacol. 41:89-103 (1992)).
Two to six ovarian lobes were surgically removed. Oocytes at developmental stages V-VI were dissected from the ovary, oocytes were still surrounded by enveloping ovarian tissues. Oocytes were defolliculated on the day of surgery by treatment with collagenase (0.5 mg/mL Sigma Type I, or Boehringer Mannheim Type A, for 0.5-1 hr). Treated oocytes were vortexed to dislodge epithelia, washed repeatedly and stored in Barth's medium containing 88 mM NaCl, 1 mM KCl, 0.41 mM CaCl2, 0.33 mM Ca(NO3)2, 0.82 mM MgSO4, 2.4 mM NaHCO3, 5 mM HEPES, pH 7.4 adjusted with 0.1 mg/mL gentamycin sulphate.
Micro-injection of oocytes: Defolliculated oocytes were micro-injected using a Nanoject injection system (Drummond Scientific Co., Broomall, Pa.). Injection pipettes were beveled to minimize clogging. Tip diameter of injection pipettes was 15-35 μm. Oocytes were microinjected with approximately 50 nL 1:10 ratio mixtures of cRNAs for rBIIa and beta 1 respectively.
Electrophysiology: Membrane current responses were recorded in frog Ringer solution containing 115 mM NaCl, 2 mM KCl, 1.8 mM CaCl2, 5 mM HEPES, pH 7.4. Electrical recordings were made using a conventional two-electrode voltage clamp (Dagan TEV-200) over periods ranging between 1-7 days following injection. The recording chamber was a simple gravity fed flow-through chamber (volume […] depending on adjustment of aspirator). Oocytes were placed in the recording chamber, impaled with electrodes and continuously perfused (5-15 mL min^−1) with frog Ringer's solution. The tested compounds were applied by bath perfusion.
Voltage protocols for evoking sodium channel currents: The standard holding potential for whole oocyte clamp was −120 mV. Standard current-voltage relationships were elicited by 40 ms depolarizing steps starting from −60 mV to +50 mV in 10 mV increments. Peak currents were measured as the maximum negative current after depolarizing voltage steps. The voltage from maximum current response was noted and used for the next voltage protocol.
The purpose was to find compounds that are state dependent modifiers of neuronal sodium channels. Preferably, the compounds have a low affinity for the rested/closed state of the channel, but a high affinity for the inactivated state. The following voltage protocol was used to measure a compounds affinity for the inactivated state. Oocytes were held at a holding potential of −120 mV. At this membrane voltage, nearly all of the channels would be in the closed state. Then a 4 second depolarization was made to the voltage where the maximum current was elicited. At the end of this depolarization, nearly all the channels would be in the inactivated state. A 10 ms hyperpolarizing step was then made in order to remove some channels from the inactivated state. A final depolarizing test pulse was used to assay the sodium current after this prolonged depolarization (see analysis below). Sodium currents were measured at this test pulse before and after the application of the tested compound. Data was acquired using pClamp 8.0 software and analyzed with clampfit software (Axon instruments). […]

SMILES	Ki [µM]
CCCCc1ccc(-c2cncc(C(N)=O)c2)cc1 [5-(4-n-Butylphenyl)pyridine-3-carboxamide]	11.1
CCCCc1ccc(-c2ccc(C(N)=O)cn2)cc1 [2-(4-n-Butylphenyl)pyridine-5-carboxamide]	24.5
NC(=O)c1cncc(-c2ccc3ccccc3c2)c1 [5-(2-naphthyl)pyridine-3-carboxamide, 5-(2-Naphthyl)pyridine-3-carboxamide]	35.1
CCOc1ccc(-c2cc(C(N)=O)ccn2)cc1 [2-(4-ethoxyphenyl)pyridine-4-carboxamide, 2-(4-Ethoxyphenyl)pyridine-4-carboxamide]	14.7
NC(=O)c1ccnc(-c2ccc(OC(F)(F)F)cc2)c1 [2-(4-Trifluoromethoxyphenyl)pyridine-4-carboxamide]	24.7
CC(C)(C)c1ccc(-c2cncc(C(N)=O)c2)cc1 [5-(4-tert-Butylphenyl)pyridine-3-carboxamide]	18.6
NC(=O)c1ccc(-c2ccc(Oc3ccccc3)cc2)nc1 [2-(4-Phenoxyphenyl)pyridine-5-carboxamide]	14.6
O=C(NCCN1CCCCC1)c1cncc(-c2ccc(Oc3ccc(F)cc3)cc2)c1 [5-[4-(4-fluorophenoxy)phenyl]pyridine 3-carboxylic acid 2-(N-piperidinyl)ethylamide]	0.78
NC(=O)c1cncc(-c2ccc(OC(F)(F)F)cc2)c1 [5-(4-Trifluoromethoxyphenyl)pyridine-3-carboxamide]	25
NC(=O)c1ccc(-c2ccc(OC(F)(F)F)cc2)nc1 [2-(4-Trifluoromethoxyphenyl)pyridine-5-carboxamide]	34.2
NC(=O)c1cccnc1-c1ccc(Oc2ccc(F)cc2)cc1 [2-[4-(4-Fluorophenoxy)phenyl]pyridine-3-carboxamide]	13.6
NC(=O)c1ccnc(-c2ccc(Oc3ccccc3)cc2)c1 [2-(4-Phenoxyphenyl)pyridine-4-carboxamide]	22.3
COc1ccc(-c2cc(C(N)=O)ccn2)cc1 [2-(4-Methoxyphenyl)pyridine-4-carboxamide]	6.17
COc1ccc(-c2cncc(C(N)=O)c2)cc1 [5-(4-Methoxyphenyl)pyridine-3-carboxamide]	54.4
CCOc1ccc(-c2ccc(C(N)=O)cn2)cc1 [2-(4-ethoxyphenyl)pyridine-5-carboxamide, 2-(4-Ethoxyphenyl)pyridine-5-carboxamide]	29.7
NC(=O)c1ccc(-c2ccc3ccccc3c2)nc1 [2-(2-naphthyl)pyridine-5-carboxamide, 2-(2-Naphthyl)pyridine-5-carboxamide]	28.1
NC(=O)c1ccc(-c2ccc(C(F)(F)F)cc2)nc1 [2-(4-Trifluoromethylphenyl)pyridine-5-carboxamide]	24.7
NC(=O)c1ccnc(-c2ccc(Oc3ccc(F)cc3)cc2)c1 [2-[4-(4-Fluorophenoxy)phenyl]pyridine-4-carboxamide]	6.91
CC(C)(C)c1ccc(-c2cc(C(N)=O)ccn2)cc1 [2-(4-tert-Butylphenyl)pyridine-4-carboxamide]	53.1
CC(C)(C)c1ccc(-c2ccc(C(N)=O)cn2)cc1 [2-(4-tert-Butylphenyl)pyridine-5-carboxamide]	32.3
CC(C)c1ccc(-c2cc(C(N)=O)ccn2)cc1 [2-(4-i-Propylphenyl)pyridine-4-carboxamide]	39.2

Continued by falling Ki, values first:

Ki [µM]	SMILES
44.6	COc1ccc(-c2ccc(C(N)=O)cn2)cc1 [2-(4-Methoxyphenyl)pyridine-5-carboxamide]
40.7	NC(=O)c1ccc(-c2ccc(-c3ccccc3)cc2)nc1 [2-(2-phenylphenyl)pyridine-5-carboxamide, 2-(4-Phenylphenyl)pyridine-5-carboxamide]
36.2	CCOc1ccc(-c2cncc(C(N)=O)c2)cc1 [5-(4-ethoxyphenyl)pyridine-3-carboxamide, 5-(4-Ethoxyphenyl)pyridine-3-carboxamide]
35.6	CSc1ccc(-c2ccc(C(N)=O)cn2)cc1 [2-(4-Thiomethylphenyl)pyridine-5-carboxamide]
32.9	CCCCc1ccc(-c2cc(C(N)=O)ccn2)cc1 [2-(4-n-Butylphenyl)pyridine-4-carboxamide]
29	CSc1ccc(-c2cncc(C(N)=O)c2)cc1 [5-(4-Thiomethylphenyl)pyridine-3-carboxamide]
24.9	NC(=O)c1ccnc(-c2ccc(-c3ccccc3)cc2)c1 [2-(2-phenylphenyl)pyridine-4-carboxamide, 2-(4-Phenylphenyl)pyridine-4-carboxamide]
23	NC(=O)c1cncc(-c2ccc(C(F)(F)F)cc2)c1 [5-(4-Trifluoromethylphenyl)pyridine-3-carboxamide]
5.43	NC(=O)c1cncc(-c2ccc(Oc3ccccc3)cc2)c1 [5-(4-Phenoxyphenyl)pyridine-3-carboxamide]
0.95	O=C(NCCN1CCCCC1)c1ccc(-c2ccc(Oc3ccc(F)cc3)cc2)nc1 [2-[4-(4-Fluorophenoxy)phenyl]pyridine 5-carboxylic acid 2-(N-piperidinyl)ethylamide]
